Results from the CheMixHub viscosity set.
± gives the uncertainty stated by the source.

Assay: xn = mol fraction of the nth substance listed

ClC=C(Cl)Cl + CC#N
Conditions	viscosity [mPa·s]
298.15 K, 101 kPa, x1 = 0.0501	0.358 ± 0.056
298.15 K, 101 kPa, x1 = 0.099	0.373 ± 0.058
298.15 K, 101 kPa, x1 = 0.2003	0.406 ± 0.061
298.15 K, 101 kPa, x1 = 0.3001	0.434 ± 0.064
298.15 K, 101 kPa, x1 = 0.3984	0.461 ± 0.068
298.15 K, 101 kPa, x1 = 0.4976	0.485 ± 0.07
298.15 K, 101 kPa, x1 = 0.5968	0.504 ± 0.072
298.15 K, 101 kPa, x1 = 0.7206	0.526 ± 0.075
298.15 K, 101 kPa, x1 = 0.7798	0.532 ± 0.075
298.15 K, 101 kPa, x1 = 0.9038	0.541 ± 0.076
298.15 K, 101 kPa, x2 = 0.0708	0.524 ± 0.005
298.15 K, 101 kPa, x2 = 0.1846	0.515 ± 0.005
298.15 K, 101 kPa, x2 = 0.3572	0.494 ± 0.005
298.15 K, 101 kPa, x2 = 0.4854	0.471 ± 0.005
298.15 K, 101 kPa, x2 = 0.5616	0.458 ± 0.005
298.15 K, 101 kPa, x2 = 0.6719	0.433 ± 0.005
298.15 K, 101 kPa, x2 = 0.775	0.403 ± 0.004
298.15 K, 101 kPa, x2 = 0.9121	0.369 ± 0.004
303.15 K, 101.32 kPa, x2 = 0.0893	0.5209 ± 0.0072
303.15 K, 101.32 kPa, x2 = 0.1803	0.5171 ± 0.0071
303.15 K, 101.32 kPa, x2 = 0.2502	0.5072 ± 0.0071
303.15 K, 101.32 kPa, x2 = 0.3697	0.4877 ± 0.0069
303.15 K, 101.32 kPa, x2 = 0.5273	0.4539 ± 0.0066
303.15 K, 101.32 kPa, x2 = 0.6422	0.4238 ± 0.0064
303.15 K, 101.32 kPa, x2 = 0.7089	0.4071 ± 0.0063
303.15 K, 101.32 kPa, x2 = 0.7814	0.3824 ± 0.0061
303.15 K, 101.32 kPa, x2 = 0.8363	0.3654 ± 0.0059
303.15 K, 101.32 kPa, x2 = 0.9308	0.3451 ± 0.0058
308.15 K, 101 kPa, x2 = 0.0708	0.483 ± 0.005
308.15 K, 101 kPa, x2 = 0.1846	0.471 ± 0.005
308.15 K, 101 kPa, x2 = 0.3572	0.451 ± 0.005
308.15 K, 101 kPa, x2 = 0.4854	0.43 ± 0.005
308.15 K, 101 kPa, x2 = 0.5616	0.417 ± 0.005
308.15 K, 101 kPa, x2 = 0.6719	0.396 ± 0.004
308.15 K, 101 kPa, x2 = 0.775	0.37 ± 0.004
308.15 K, 101 kPa, x2 = 0.9121	0.341 ± 0.004
318.15 K, 101 kPa, x2 = 0.0708	0.443 ± 0.005
318.15 K, 101 kPa, x2 = 0.1846	0.431 ± 0.005
318.15 K, 101 kPa, x2 = 0.3572	0.413 ± 0.005
318.15 K, 101 kPa, x2 = 0.4854	0.393 ± 0.004
318.15 K, 101 kPa, x2 = 0.5616	0.384 ± 0.004
318.15 K, 101 kPa, x2 = 0.6719	0.364 ± 0.004
318.15 K, 101 kPa, x2 = 0.775	0.342 ± 0.004
318.15 K, 101 kPa, x2 = 0.9121	0.315 ± 0.004

ClC=C(Cl)Cl + CC(=O)CC(C)C
viscosity [mPa·s], 101.33 kPa
Conditions	x1 = 0.1088	x1 = 0.1998	x1 = 0.3286	x1 = 0.4037	x1 = 0.5018	x1 = 0.5921	x1 = 0.7362	x1 = 0.7986	x1 = 0.8859
298.15 K	0.564 ± 0.007	0.578 ± 0.007	0.593 ± 0.008	0.603 ± 0.008	0.616 ± 0.008	0.621 ± 0.008	0.631 ± 0.008	0.63 ± 0.008	0.624 ± 0.008
308.15 K	0.508 ± 0.007	0.516 ± 0.007	0.533 ± 0.007	0.546 ± 0.007	0.561 ± 0.007	0.574 ± 0.007	0.595 ± 0.008	0.6 ± 0.008	0.605 ± 0.008
318.15 K	0.464 ± 0.006	0.475 ± 0.006	0.49 ± 0.006	0.5 ± 0.007	0.51 ± 0.007	0.519 ± 0.007	0.533 ± 0.007	0.539 ± 0.007	0.547 ± 0.007

CC(O)CO (centres undefined) + CC(=O)N(C)C
viscosity [mPa·s], 101 kPa
Conditions	x2 = 0.0807	x2 = 0.0999	x2 = 0.2	x2 = 0.2994	x2 = 0.4014	x2 = 0.4996	x2 = 0.6	x2 = 0.6954	x2 = 0.7937	x2 = 0.8997
293.15 K	36.91 ± 0.84	33.19 ± 0.76	19.06 ± 0.46	11.57 ± 0.29	7.324 ± 0.2	4.919 ± 0.14	3.403 ± 0.1	2.466 ± 0.074	1.827 ± 0.056	1.349 ± 0.042
303.15 K	21.61 ± 0.53	19.64 ± 0.48	12.06 ± 0.3	7.768 ± 0.21	5.202 ± 0.15	3.659 ± 0.11	2.637 ± 0.079	1.987 ± 0.06	1.512 ± 0.047	1.151 ± 0.037
313.15 K	13.49 ± 0.34	12.39 ± 0.31	8.071 ± 0.21	5.477 ± 0.15	3.845 ± 0.11	2.819 ± 0.084	2.108 ± 0.064	1.634 ± 0.05	1.277 ± 0.04	1 ± 0.032
323.15 K	8.96 ± 0.23	8.317 ± 0.22	5.673 ± 0.16	4.023 ± 0.12	2.939 ± 0.087	2.229 ± 0.067	1.718 ± 0.053	1.368 ± 0.043	1.097 ± 0.035	0.879 ± 0.029

ClC=C(Cl)Cl + CC(C)(C)O
303.15 K, 101.3 kPa
Conditions	viscosity [mPa·s]
x1 = 0.1042	1.951 ± 0.025
x1 = 0.2103	1.329 ± 0.017
x1 = 0.3164	1.018 ± 0.014
x1 = 0.4143	0.856 ± 0.012
x1 = 0.5147	0.758 ± 0.01
x1 = 0.6204	0.689 ± 0.01
x1 = 0.7102	0.648 ± 0.009
x1 = 0.8036	0.608 ± 0.009
x1 = 0.9088	0.562 ± 0.008

NC1CCCCC1 + CC(C)(C)O
298.15 K, 101 kPa
Conditions	viscosity [mPa·s]
x1 = 0.0767	4.039 ± 0.046
x1 = 0.1574	3.722 ± 0.043
x1 = 0.2426	3.444 ± 0.039
x1 = 0.3325	3.203 ± 0.037
x1 = 0.4277	2.974 ± 0.034
x1 = 0.5285	2.749 ± 0.032
x1 = 0.6355	2.519 ± 0.029
x1 = 0.7493	2.309 ± 0.027
x1 = 0.8706	2.106 ± 0.025
